Assays:
[1] = tested on: endogeneous binding proteins; assay: ACMIA assay for tacrolimus on spiked whole blood samples with and without SIRO displacing agent (free vs bound tacrolimus); format: in vitro ADME; conditions: for Protein-Bound: +SIRO minus −SIRO; for +SIRO ng/mL (free plus bound tacrolimus): with SIRO displacer
Procedure: Testing is carried out using the DIMENSION® RxL analyzer, available from Siemens Healthcare Diagnostics Inc., Newark Del. The instrument is employed using ACMIA immunoassay technology. The ACMIA assay method is described in U.S. Pat. Nos. 7,186,518, 5,147,529, 5,128,103, 5,158,871, 4,661,408, 5,151,348, 5,302,532, 5,422,284, 5,447,870, and 5,434,051, the disclosures of which are incorporated herein in their entirety. In the embodiment of the ACMIA method used herein and discussed in more detail below, competition between tacrolimus analog on chrome particles and tacrolimus in patient samples for antibody for tacrolimus conjugated to an enzyme (the “conjugate”) is utilized to determine the amount of tacrolimus in patient samples. Conjugate that binds to the tacrolimus analog on chrome particles is removed by magnetic separation. The enzymatic activity from conjugate remaining in the supernatant is measured and is directly proportional to the amount of tacrolimus in the patient sample. In the ACMIA assay format employed, the enzymatic activity observed when testing a sample containing no tacrolimus is indicative of the amount of enzymatic activity that is not bound to active antibody (i.e., cannot bind tacrolimus on chrome particles). The enzymatic activity observed when no chrome particle is present is indicative of the total amount of enzymatic activity in the conjugate. These values can be used to estimate the percent of enzymatic activity bound to active antibody.
Tacrolimus-free whole blood pools are screened by running the above mentioned ACMIA assay to identify whole blood pools that are substantially free from endogenous interfering substances. The screening is carried out by examining the consistency of tacrolimus recoveries of the pools to the individual tacrolimus-free whole blood samples. If the recoveries of the majority of the tacrolimus-free whole blood samples are within the low end sensitivity of the assay when the pool is used as the tacrolimus-free calibrator, the pool is accepted as a matrix free from endogenous interfering substances. The pool is then used to make the tacrolimus calibrators (or standards) by spiking different amounts of pure tacrolimus into the pool. The calibrators (which are substantially free from endogenous interfering substances) are then employed to generated the relationship of [Z]=a[Y]+b during the method calibration, which is achieved by testing the calibrators in the presence and absence of a displacing agent (sirolimus). Both [Z] and [Y] are generated from the calibration. The [Z] values of the calibrators are generated by running the calibrators in the absence of the displacing agent (representing the free drug) and the [Y] values of the calibrators are generated by subtracting the [Z] value from the total drug measured in the presence of the displacing agent (representing the bound drug). Calibrators made from a whole blood pool that is substantially free from endogeneous interfering substances are selected for use in the experiments below.
The whole blood pool substantially free from endogeneous interfering substances identified above is used. Aliquots (100 mL) of the whole blood pool are spiked with various amounts of tacrolimus so that the resulting concentration of tacrolimus in the whole blood samples is 0, 2.8, 6.0, 11.9 and 31.3 ng/mL (samples I-V).
A set of samples I-V is treated as follows: To each sample is added a sirolimus (SIRO) displacing agent for displacing tacrolimus in the sample from endogeneous binding proteins. The formulation for the SIRO displacement solution is set forth in more detail in Table 1.
The samples are incubated at 37° C. for a period of 140 minutes in the presence of displacing agent to displace tacrolimus from endogeneous binding substances. […]

[2] = ACMIA assay for tacrolimus on unknown samples known to contain endogeneous interfering substances; conditions: for Estimated True: [Y]+[Z]; for Free drug: [Z]=0.218[Y]+0.0981
Procedure: Testing is carried out using the DIMENSION® RxL analyzer, available from Siemens Healthcare Diagnostics Inc., Newark Del. The instrument is employed using ACMIA immunoassay technology. The ACMIA assay method is described in U.S. Pat. Nos. 7,186,518, 5,147,529, 5,128,103, 5,158,871, 4,661,408, 5,151,348, 5,302,532, 5,422,284, 5,447,870, and 5,434,051, the disclosures of which are incorporated herein in their entirety. In the embodiment of the ACMIA method used herein and discussed in more detail below, competition between tacrolimus analog on chrome particles and tacrolimus in patient samples for antibody for tacrolimus conjugated to an enzyme (the “conjugate”) is utilized to determine the amount of tacrolimus in patient samples. Conjugate that binds to the tacrolimus analog on chrome particles is removed by magnetic separation. The enzymatic activity from conjugate remaining in the supernatant is measured and is directly proportional to the amount of tacrolimus in the patient sample. In the ACMIA assay format employed, the enzymatic activity observed when testing a sample containing no tacrolimus is indicative of the amount of enzymatic activity that is not bound to active antibody (i.e., cannot bind tacrolimus on chrome particles). The enzymatic activity observed when no chrome particle is present is indicative of the total amount of enzymatic activity in the conjugate. These values can be used to estimate the percent of enzymatic activity bound to active antibody. The ACMIA assay for tacrolimus is as follows: 15 μL of a whole blood samples I-V from above (substantially free from endogeneous interfering substances and spiked with tacrolimus) is mixed with the SIRO displacement solution (Table 1) in a vessel on the DIMENSION® RxL analyzer. The whole blood is sampled from a standard cup by first mixing the blood with the ultrasonic sample probe. The mixing of whole blood sample with the SIRO displacement solution ensures the displacement of the bound tacrolimus molecules from their binding sites when the SIRO molecules are present. As a result, the signal generated from this assay is related to the amount of free tacrolimus analyte plus the amount of displaced tacrolimus analyte (bound analyte) in the sample. Anti-tacrolimus antibody-β-galactosidase conjugate (50 μL) is added next to each of the reaction vessels and the mixture is held for a period of time (10 to 15 minutes) and at a temperature of 43° C. to allow tacrolimus, if present, to react with the antibody reagent. Chrome particles with immobilized tacrolimus-CM0-DA10-Dexal are added (50 μL) to each of the reaction vessels and are allowed to bind un-bound conjugate. […] The tacrolimus-bound conjugate is detected by transferring the supernatant from each of the reaction vessels to a photometric cuvette and measuring the enzymatic rate of the conjugate in the presence of chlorophenol red-β-D-galactopyranoside (CPRG). The rate for each reaction vessel is measured bichromatically at 577 and 700 nm. The above ACMIA assay is then carried out on unknown samples known to contain endogeneous interfering substances. Samples are obtained from various hospitals and are identified as set forth in first column of Table 3 below. The concentration of bound tacrolimus [Y] is determined as described above. The equation [Z]=0.218[Y]+0.0981 with the values for “a” and “b” determined as discussed above for this ACMIA assay is used to determine a concentration of free tacrolimus [Z] in the samples. The estimated true total concentration of tacrolimus [X] in each sample is determined by adding [Y]+[Z].

[3] = as above
[4] = tested on: endogeneous binding proteins; assay: ACMIA assay for tacrolimus on spiked whole blood samples with and without SIRO displacing agent (free vs bound tacrolimus); format: in vitro ADME; conditions: without SIRO

Protein-Bound ([1]; BV 2.8 ng/mL): 2.1 ng/mL
+SIRO ng/mL (free plus bound tacrolimus) ([1]; BV 2.8 ng/mL): 2.8 ng/mL
Protein-Bound ([1]; BV 6.0 ng/mL): 4.9 ng/mL
+SIRO ng/mL (free plus bound tacrolimus) ([1]; BV 6.0 ng/mL): 6.0 ng/mL
Protein-Bound ([1]; BV 11.9 ng/mL): 9.7 ng/mL
+SIRO ng/mL (free plus bound tacrolimus) ([1]; BV 11.9 ng/mL): 11.9 ng/mL
Protein-Bound ([1]; BV 31.3 ng/mL): 25.6 ng/mL
+SIRO ng/mL (free plus bound tacrolimus) ([1]; BV 31.3 ng/mL): 31.3 ng/mL
Bound drug ([2]; sample 09-238-057): 0.0 ng/mL
ng/mL + displacer ([2]; sample 09-238-057): 32.7 ng/mL
ng/mL − displacer ([2]; sample 09-238-057): 36.1 ng/mL
Estimated True ([2]; sample 09-238-057): 0.0 ng/mL
Free drug ([2]; sample 09-238-057): 0.0 ng/mL
Bound drug ([2]; sample 109): 0.0 ng/mL
ng/mL + displacer ([2]; sample 109): 16.4 ng/mL
ng/mL − displacer ([2]; sample 109): 21.3 ng/mL
Estimated True ([2]; sample 109): 0.0 ng/mL
Free drug ([2]; sample 109): 0.0 ng/mL
Bound drug ([2]; sample 864408): 2.3 ng/mL
ng/mL + displacer ([2]; sample 864408): 27.7 ng/mL
Estimated True ([2]; sample 864408): 2.9 ng/mL
Free drug ([2]; sample 864408): 0.6 ng/mL
Bound drug ([2]; sample Dussel): 2.3 ng/mL
ng/mL + displacer ([2]; sample Dussel): 14.4 ng/mL
Estimated True ([2]; sample Dussel): 2.9 ng/mL
Free drug ([2]; sample Dussel): 0.6 ng/mL
Bound drug ([2]; sample FP15): 7.1 ng/mL
ng/mL + displacer ([2]; sample FP15): 10.9 ng/mL
Estimated True ([2]; sample FP15): 8.7 ng/mL
Free drug ([2]; sample FP15): 1.6 ng/mL
ng/mL − displacer ([3]; sample 864408): 25.4 ng/mL
ng/mL − displacer ([3]; sample Dussel): 12.2 ng/mL
ng/mL − displacer ([3]; sample FP15): 3.8 ng/mL
−SIRO ng/mL (free tacrolimus) ([4]; BV 2.8 ng/mL): 0.7 ng/mL
−SIRO ng/mL (free tacrolimus) ([4]; BV 6.0 ng/mL): 1.2 ng/mL
−SIRO ng/mL (free tacrolimus) ([4]; BV 11.9 ng/mL): 2.2 ng/mL
−SIRO ng/mL (free tacrolimus) ([4]; BV 31.3 ng/mL): 5.7 ng/mL
Structure (SMILES): C=CC[C@@H]1/C=C(\C)C[C@H](C)C[C@H](OC)[C@H]2O[C@@](O)(C(=O)C(=O)N3CCCC[C@H]3C(=O)O[C@H](/C(C)=C/[C@@H]3CC[C@@H](O)[C@H](OC)C3)[C@H](C)[C@@H](O)CC1=O)[C@H](C)C[C@@H]2OC [tacrolimus]

Reference: patent publication US9658218B2, “Determination of total analyte concentration” (Siemens Healthcare Diagnostics Inc., priority 2012, dated 2017)
